This is an account of results in US8574563B2 (Bristol-Myers Squibb Company, priority 2006, dated 2013).

In the first test the test system is HCV 1b-377-neo replicon cells. Kind of test: HCV replicon assay, HCV 1b-377-neo replicon cells (1b FRET). In kind it is cell-based, Hepatitis C virus genotype 1b. To be noted: HCV 1b-377-neo replicon cells; HCV 1b genotype; read-out: EC50 range against HCV 1b (Table 2, Range). As to the method:
An HCV Replion assay was utilized in the present disclosure, and was prepared, conducted and validated as described in commonly owned PCT/US2006/022197 and in O'Boyle et. al. Antimicrob Agents Chemother. 2005 April; 49(4):1346-53.
HCV 1b-377-neo replicon cells were used to test the currently described compound series as well as cells resistant to compound A due to a Y2065H mutation in NS5A (described in application PCT/US2006/022197). The compounds tested were determined to have more than 10-fold less inhibitory activity on cells resistant to compound A than wild-type cells indicating a related mechanism of action between the two compound series. Thus, the compounds of the present disclosure can be effective to inhibit the function of the HCV NS5A protein and are understood to be as effective in combinations as previously described in application PCT/US2006/022197 and commonly owned WO/04014852. Further, the compounds of the present disclosure can be effective against the HCV 1b genotype. It should also be understood that the compounds of the present disclosure can inhibit multiple genotypes of HCV. […] In one embodiment compounds of the present disclosure are active against the 1a, 1b, 2a, 2b, 3a, 4a, and 5a genotypes.
In general terms: A replicon is a self-replicating genome or part of one, used to study replication in cells.
The EC50 is the concentration giving half of the maximal effect. `O=C(C(c1ccccc1)N1CCC(c2ccccc2)CC1)N1CCC[C@H]1c1ncc(-c2ccc(-c3ccc(-c4c[nH]c([C@@H]5CCCN5C(=O)[C@H]5CCCO5)n4)cc3)cc2)[nH]1` (stereo partly drawn) [Example 103-2, 1-(2-oxo-1-phenyl-2-((2S)-2-(5-(4′-(2-((2S)-1-((2R)-tetrahydro-2-furanylcarbonyl)-2-pyrrolidinyl)-1H-imidazol-4-yl)-4-biphenylyl)-1H-imidazol-2-yl)-1-pyrrolidinyl)ethyl)-4-phenylpiperidine]: the EC50 lay in the range of 1 to 999 pM.
On the same count and under the same terms, the result for `COC(=O)N[C@@H](C(=O)N1CCC[C@H]1c1ncc(-c2ccc(-c3ccc(-c4cnc([C@@H]5CCCN5C(=O)[C@H](OC)c5ccccc5)[nH]4)cc3)cc2)[nH]1)c1ccccc1` [Example 84-80, methyl ((1R)-2-((2S)-2-(5-(4′-(2-((2S)-1-((2R)-2-methoxy-2-phenylacetyl)-2-pyrrolidinyl)-1H-imidazol-5-yl)-4-biphenylyl)-1H-imdiazol-2-yl)-1-pyrrolidinyl)-2-oxo-1-phenylethyl)carbamate] reads 1 to 999 pM.

The same test, now with this note: Hepatitis C virus, HCV 1b-377-neo replicon cells; HCV 1b genotype; read-out: EC50 range against HCV 1b (Table 2, Range).
In the case of `COC(=O)N[C@@H](Cc1cn(C)cn1)C(=O)N1CCC[C@H]1c1ncc(-c2ccc(-c3ccc(-c4cnc([C@@H]5CCCN5C(=O)[C@@H](NC(=O)OC)[C@@H](C)OC)[nH]4)cc3)cc2)[nH]1` [cj-43, methyl ((1S)-2-((2S)-2-(5-(4′-(2-((2S)-1-((2S,3R)-3-methoxy-2-((methoxycarbonyl)amino)butanoyl)-2-pyrrolidinyl)-1H-imidazol-5-yl)-4-biphenylyl)-1H-imidazol-2-yl)-1-pyrrolidinyl)-1-((1-methyl-1H-imidazol-4-yl)methyl)-2-oxoethyl)carbamate], the concentration giving a half-maximal response (EC50) was in the range of 1 to 999 pM.
As for `COC(=O)N[C@@H](C(=O)N1CCC[C@H]1c1ncc(-c2ccc(-c3ccc(-c4cnc([C@@H]5CCCN5C(=O)[C@@H](Nc5ncccn5)C(C)C)[nH]4)cc3)cc2)[nH]1)c1ccccc1` [cj-11b, methyl ((1R)-2-oxo-1-phenyl-2-((2S)-2-(5-(4′-(2-((2S)-1-(N-2-pyrimidinyl-L-valyl)-2-pyrrolidinyl)-1H-imidazol-5-yl)-4-biphenylyl)-1H-imidazol-2-yl)-1-pyrrolidinyl)ethyl)carbamate], the EC50 fell in the range of 1 to 999 pM.
With `CCN(CC)C(C)C(=O)N1CCC[C@H]1c1nc(C(F)(F)F)c(-c2ccc(-c3ncc(-c4cnc([C@@H]5CCCN5C(=O)[C@@H](C)N(CC)CC)[nH]4)cn3)cc2)[nH]1` (stereo in doubt) [Example J51, (2R)-1-((2S)-2-(5-(4-(5-(2-((2S)-1-((2R)-2-(diethylamino)propanoyl)-2-pyrrolidinyl)-1H-imidazol-5-yl)-2-pyrimidinyl)phenyl)-4-(trifluoromethyl)-1H-imidazol-2-yl)-1-pyrrolidinyl)-N,N-diethyl-1-oxo-2-propanamine], the EC50 lay within 1000 to 99000 pM.
Still for that read-out and setting: the result for `CN(C)[C@@H](C(=O)N1CCC[C@H]1c1ncc(-c2ccc(-c3ccc(-c4cnc([C@@H]5CCCN5C(=O)[C@@H](c5ccccc5Cl)N(C)C)[nH]4)cc3)cc2)[nH]1)c1ccccc1` [Example 107-35, (1R)-1-(2-chloro-phenyl)-2-((2S)-2-(5-(4′-(2-((2S)-1-((2R)-2-(dimethylamino)-2-phenylacetyl)-2-pyrrolidinyl)-1H-imidazol-5-yl)-4-biphenylyl)-1H-imidazol-2-yl)-1-pyrrolidinyl)-N,N-dimethyl-2-oxoethanamine] reads 1 to 999 pM; that for `COC(=O)N[C@@H](C(=O)N1CCC[C@H]1c1ncc(-c2ccc(-c3ccc(-c4cnc([C@@H]5CCCN5C(=O)[C@H](OC)c5ccccc5)[nH]4)cc3)cc2)[nH]1)c1ccccc1Cl` [Example 107-43, methyl ((1R)-1-(2-chlorophenyl)-2-((2S)-2-(5-(4′-(2-((2S)-1-((2R)-2-methoxy-2-phenylacetyl)-2-pyrrolidinyl)-1H-imidazol-5-yl)-4-biphenylyl)-1H-imidazol-2-yl)-1-pyrrolidinyl)-2-oxoethyl) carbamate], 1 to 999 pM.
For the compound `CN(C)[C@@H](C(=O)N1CCC[C@H]1c1ncc(-c2ccc(-c3ccc(-c4cnc([C@@H]5CCCN5C(=O)Cc5noc6ccccc56)[nH]4)cc3)cc2)[nH]1)c1ccccc1` [Example 94-55, (1R)-2-((2S)-2-(5-(4′-(2-((2S)-1-(1,2-benzisoxazol-3-ylacetyl)-2-pyrrolidinyl)-1H-imidazol-5-yl)-4-biphenylyl)-1H-imidazol-2-yl)-1-pyrrolidinyl)-N,N-dimethyl-2-oxo-1-phenylethanamine], the EC50 is 1 to 999 pM.
As to `COC(=O)N[C@@H](C(=O)N1CCC[C@H]1c1ncc(-c2ccc(-c3ccc(-c4cnc([C@@H]5CCCN5C(=O)[C@H](NC(=O)OC)c5ccccc5)[nH]4)cc3)cc2)[nH]1)c1ccccc1` [Example 4, dimethyl (4,4′-biphenyldiylbis(1H-imidazole-5,2-diyl(2S)-2,1-pyrrolidinediyl((1R)-2-oxo-1-phenyl-2,1-ethanediyl)))biscarbamate], the EC50 is 1 to 999 pM.
As to `COC(=O)N[C@H](C(=O)N1CCC[C@H]1c1ncc(-c2ccc(-c3ccc(-c4cnc([C@@H]5CCCN5C(=O)[C@@H](Nc5n[nH]c(N)n5)C(C)C)[nH]4)cc3)cc2)[nH]1)C(C)C`, the EC50 was in the range of 1 to 999 pM.
Same read-out and setting: the figure for `COC(=O)N[C@H](C(=O)N1CCC[C@H]1c1ncc(-c2ccc(-c3ccc(-c4cnc([C@@H]5CCCN5C(=O)[C@H]5CC[C@@H](NC(=O)OC)CC5)[nH]4)cc3)cc2)[nH]1)C(C)C` [cj-69, methyl ((1S)-1-(((2S)-2-(5-(4′-(2-((2S)-1-((cis-4-((methoxycarbonyl)amino)cyclohexyl)carbonyl)-2-pyrrolidinyl)-1H-imidazol-5-yl)-4-biphenylyl)-1H-imidazol-2-yl)-1-pyrrolidinyl)carbonyl)-2-methylpropyl)carbamate] is 1 to 999 pM.
Turning to `COC(=O)N[C@@H](C)C(=O)N1CCC[C@H]1c1ncc(-c2ccc(-c3ccc(-c4cnc([C@@H]5CCCN5C(=O)[C@H](Cc5ccc(OCc6ccccc6)cc5)NC(=O)OC)[nH]4)cc3)cc2)[nH]1` [cj-107, methyl ((1S)-1-(4-(benzyloxy)benzyl)-2-((2S)-2-(5-(4′-(2-((2S)-1-(N-(methoxycarbonyl)-L-alanyl)-2-pyrrolidinyl)-1H-imidazol-5-yl)-4-biphenylyl)-1H-imidazol-2-yl)-1-pyrrolidinyl)-2-oxoethyl)carbamate], the EC50 was in the range of 1 to 999 pM.
`CC[C@H](C(=O)N1CCC[C@H]1c1ncc(-c2ccc(-c3ccc(-c4cnc([C@@H]5CCCN5C(=O)[C@H](NC(=O)OC)c5ccccc5)[nH]4)cc3)cc2)[nH]1)N(CC)CC` [Example M66x, methyl ((1R)-2-((2S)-2-(5-(4′-(2-((2S)-1-((2R)-2-(diethylamino)butanoyl)-2-pyrrolidinyl)-1H-imidazol-5-yl)-4-biphenylyl)-1H-imidazol-2-yl)-1-pyrrolidinyl)-2-oxo-1-phenylethyl)carbamate]: the EC50 lay within 1000 to 99000 pM.
Consider `COC(=O)N[C@H](C(=O)N1[C@H](c2ncc(-c3ccc(-c4ccc(-c5cnc([C@@H]6C[C@@H]7C[C@@H]7N6C(=O)[C@@H](NC(=O)OC)C(C)(C)O)[nH]5)cc4)cc3)[nH]2)C[C@@H]2C[C@@H]21)C(C)(C)O` [Example M125, methyl ((1S)-2-hydroxy-1-(((1S,3S,5S)-3-(5-(4′-(2-((1S,3S,5S)-2-((2S)-3-hydroxy-2-((methoxycarbonyl)amino)-3-methylbutanoyl)-2-azabicyclo[3.1.0]hex-3-yl)-1H-imidazol-5-yl)-4-biphenylyl)-1H-imidazol-2-yl)-2-azabicyclo[3.1.0]hex-2-yl)carbonyl)-2-methylpropyl)carbamate], for which the EC50 was in the range of 1000 to 99000 pM.
Regarding `COC(=O)N[C@H](C(=O)N1CCC[C@H]1c1nc(C)c(-c2ccc(-c3ccc(-c4nc([C@@H]5CCCN5C(=O)[C@@H](NC(=O)OC)[C@@H](C)OC)[nH]c4C)cc3)cc2)[nH]1)C(C)OC` (stereo in doubt) [Example E5m, methyl ((1S,2R)-2-methoxy-1-(((2S)-2-(4-(4′-(2-((2S)-1-(N-(methoxycarbonyl)-O-methyl-L-threonyl)-2-pyrrolidinyl)-5-methyl-1H-imidazol-4-yl)-4-biphenylyl)-5-methyl-1H-imidazol-2-yl)-1-pyrrolidinyl)carbonyl)propyl)carbamate], the EC50 is 1 to 999 pM.
For `COC(=O)NC1CCC(C(=O)N2CCC[C@H]2c2ncc(-c3ccc(-c4ccc(-c5cnc([C@@H]6CCCN6C(=O)C6CCC(NC(=O)OC)C6)[nH]5)cc4)cc3)[nH]2)C1` (stereo in doubt) [cj-149, dimethyl (4,4′-biphenyldiylbis(1H-imidazole-5,2-diyl(2S)-2,1-pyrrolidinediylcarbonyl(1R,3S)-3,1-cyclopentanediyl))biscarbamate], the EC50 lay within 1000 to 99000 pM.
For the compound `CCN(CC)[C@H](C)C(=O)N1CCC[C@H]1c1ncc(-c2ccc(-c3ccc(-c4cnc([C@@H]5CCCN5C(=O)[C@H](NC(=O)OC)c5ccccc5)[nH]4)c(F)c3)cc2F)[nH]1` [Example D63, methyl ((1R)-2-((2S)-2-(5-(4′-(2-((2S)-1-(N,N-diethyl-D-alanyl)-2-pyrrolidinyl)-1H-imidazol-5-yl)-3,3′-difluoro-4-biphenylyl)-1H-imidazol-2-yl)-1-pyrrolidinyl)-2-oxo-1-phenylethyl)carbamate], the EC50 was 1 to 999 pM.
